Drawing on ChEMBL document CHEMBL1909046, “DrugMatrix in vitro pharmacology data”, this text covers IC50 and Ki for 19 compounds.

One assay concerns the target Vasopressin V1a receptor (Homo sapiens, UniProt P37288). In kind it is cell membranes, Membrane. As to conditions: hek293. Also: in other assays of this panel Not Active means under 50% inhibition at 10 µM.
Assay [1] in a line: DRUGMATRIX: GABAA, Chloride Channel, TBOB radioligand binding (ligand: [3H] TBOB). In kind it is cell membranes, Rattus norvegicus, Wistar, Cerebral cortex, Membrane. Conditions: Not Active = under 50% inhibition at 10 µM.
Assay [2] has as its target Mitogen-activated protein kinase 1 (Homo sapiens, UniProt P28482). In words: DRUGMATRIX: Protein Serine/Threonine Kinase, ERK2 enzyme inhibition (substrate: Myelin Basic Protein). As to conditions: Not Active = under 50% inhibition at 10 µM. More on the design: species or system Escherichia coli.
Assay [3] can be described thus: DRUGMATRIX: beta-Lactamase enzyme inhibition (substrate: Nitrocefin). More on the design: species or system Bacillus cereus. Conditions: Not Active = under 50% inhibition at 10 µM.
In a further assay the target is T1, Adenosine receptor A3 (Homo sapiens, UniProt P0DMS8).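 Also: radioligand binding assay with AB-MECA serving as the labeled ligand; in other assays of this panel Not Active means under 50% inhibition at 10 µM.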
T1 sequence (P0DMS8 whole entry): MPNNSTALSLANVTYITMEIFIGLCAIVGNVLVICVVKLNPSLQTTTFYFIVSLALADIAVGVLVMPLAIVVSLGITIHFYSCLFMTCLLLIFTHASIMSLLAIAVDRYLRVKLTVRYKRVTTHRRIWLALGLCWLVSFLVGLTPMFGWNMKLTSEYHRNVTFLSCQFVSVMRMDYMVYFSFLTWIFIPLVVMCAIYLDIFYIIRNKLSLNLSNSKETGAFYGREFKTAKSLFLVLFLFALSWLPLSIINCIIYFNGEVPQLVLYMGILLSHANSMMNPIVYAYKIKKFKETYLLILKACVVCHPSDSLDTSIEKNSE
In kind it is cell membranes, CHO-K1, Membrane.

Assay [4] has as its target Kappa-type opioid receptor (Homo sapiens, UniProt P41145). The assay is described as follows: DRUGMATRIX: Opiate kappa (OP2, KOP) radioligand binding (ligand: [3H] Diprenorphine). In kind it is cell membranes, HEK293, Membrane. Conditions: hek293; Not Active = under 50% inhibition at 10 µM.
Assay [5] concerns the target T2, Vasoactive intestinal polypeptide receptor 1 (Homo sapiens, UniProt P32241). Also: in other assays of this panel Not Active means under 50% inhibition at 10 µM.
T2 sequence (P32241 whole entry): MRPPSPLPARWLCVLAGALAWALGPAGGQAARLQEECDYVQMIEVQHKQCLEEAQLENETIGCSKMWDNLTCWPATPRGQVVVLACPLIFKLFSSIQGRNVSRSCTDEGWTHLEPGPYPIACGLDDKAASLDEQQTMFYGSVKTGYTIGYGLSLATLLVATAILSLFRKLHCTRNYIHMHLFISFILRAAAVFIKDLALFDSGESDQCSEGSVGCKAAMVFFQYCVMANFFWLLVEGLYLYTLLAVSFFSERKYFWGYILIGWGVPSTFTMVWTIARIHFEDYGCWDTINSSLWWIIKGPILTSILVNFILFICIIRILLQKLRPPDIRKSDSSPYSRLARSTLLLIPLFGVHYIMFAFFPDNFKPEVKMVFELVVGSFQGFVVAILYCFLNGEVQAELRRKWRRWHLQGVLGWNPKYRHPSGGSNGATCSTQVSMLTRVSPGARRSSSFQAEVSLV
It counts as cell membranes, Membrane. Conditions: ht-29.

Chain of Mitogen-activated protein kinase 1 (P28482 whole entry): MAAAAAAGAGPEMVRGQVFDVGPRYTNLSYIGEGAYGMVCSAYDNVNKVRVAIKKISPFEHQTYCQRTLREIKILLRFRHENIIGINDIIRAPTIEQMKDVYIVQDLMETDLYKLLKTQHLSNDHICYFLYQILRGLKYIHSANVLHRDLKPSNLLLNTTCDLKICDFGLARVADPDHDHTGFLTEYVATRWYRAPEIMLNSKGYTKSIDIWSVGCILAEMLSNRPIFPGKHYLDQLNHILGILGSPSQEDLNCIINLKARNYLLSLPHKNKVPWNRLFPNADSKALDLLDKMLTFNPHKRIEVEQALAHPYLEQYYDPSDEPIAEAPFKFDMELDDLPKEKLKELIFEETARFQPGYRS
Chain of Vasopressin V1a receptor (P37288 whole entry): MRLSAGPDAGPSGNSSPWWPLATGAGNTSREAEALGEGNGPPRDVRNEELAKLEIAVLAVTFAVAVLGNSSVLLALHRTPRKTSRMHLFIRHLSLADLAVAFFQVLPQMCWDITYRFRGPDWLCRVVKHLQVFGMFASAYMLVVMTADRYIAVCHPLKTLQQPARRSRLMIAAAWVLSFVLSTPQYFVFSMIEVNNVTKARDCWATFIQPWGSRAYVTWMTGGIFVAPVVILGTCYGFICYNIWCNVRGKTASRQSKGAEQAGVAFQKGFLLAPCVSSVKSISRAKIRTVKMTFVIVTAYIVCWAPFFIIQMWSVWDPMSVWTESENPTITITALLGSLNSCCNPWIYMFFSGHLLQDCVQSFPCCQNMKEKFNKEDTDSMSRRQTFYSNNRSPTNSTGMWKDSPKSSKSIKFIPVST
Chain of Kappa-type opioid receptor (P41145 whole entry): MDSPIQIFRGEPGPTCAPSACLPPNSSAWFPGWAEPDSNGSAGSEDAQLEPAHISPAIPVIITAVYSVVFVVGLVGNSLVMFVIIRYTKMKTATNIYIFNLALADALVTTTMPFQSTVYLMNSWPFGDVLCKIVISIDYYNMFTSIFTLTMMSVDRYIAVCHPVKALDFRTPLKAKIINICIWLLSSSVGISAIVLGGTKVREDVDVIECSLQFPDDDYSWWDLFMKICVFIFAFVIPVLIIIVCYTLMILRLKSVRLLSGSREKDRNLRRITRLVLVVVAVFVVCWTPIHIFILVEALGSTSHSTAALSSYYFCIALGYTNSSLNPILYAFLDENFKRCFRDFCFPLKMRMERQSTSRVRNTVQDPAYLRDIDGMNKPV

The term IC50 denotes the concentration that gives 50% inhibition. As a reminder, the Ki is the equilibrium dissociation constant of an inhibitor or competing ligand from its target. In the case of `CC[C@H]1CN2CCc3cc(OC)c(OC)cc3[C@@H]2C[C@@H]1C[C@H]1NCCc2cc(OC)c(OC)cc21` [EMETINE], the IC50 entry (against Vasopressin V1a receptor; in assay [1]; in assay [2]; in assay [3]; at Adenosine receptor A3 (cho-k1); in assay [4]) was “Not Active” in each case. In addition, the IC50 result in assay [5] was “Not Active”. Moreover, the Ki result in assay [1] and in assay [3] was “Not Active” in each case.
With `COc1cc([C@@H]2c3cc4c(cc3[C@@H](O[C@@H]3O[C@@H]5CO[C@@H](C)O[C@H]5[C@H](O)[C@H]3O)[C@H]3COC(=O)[C@H]23)OCO4)cc(OC)c1O` [ETOPOSIDE], the IC50 result (against Vasopressin V1a receptor; in assay [1]; in assay [2]; in assay [3]; against Adenosine receptor A3 (cho-k1); in assay [4]) was “Not Active” each time. The 50% inhibitory concentration (IC50) result in assay [5] is reported as “Not Active”. Besides, the Ki entry in assay [1] and in assay [3] was “Not Active” each time.
Take `COC(=O)CCc1ccc(OCC(O)CNC(C)C)cc1` (configuration not stated) [ESMOLOL]: the IC50 entry (at Vasopressin V1a receptor; in assay [1]; in assay [2]; in assay [3]; against Adenosine receptor A3 (cho-k1); in assay [4]) was “Not Active” throughout. In addition, the IC50 entry in assay [5] was “Not Active”. Further, the Ki result in assay [1] and in assay [3] was “Not Active” in each case.
For the compound `COc1ccc(C(=O)N2CCCC2=O)cc1`, the IC50 result (on Vasopressin V1a receptor; in assay [1]; in assay [2]; in assay [3]; at Adenosine receptor A3 (cho-k1); in assay [4]) was “Not Active” each time. Further, the IC50 result in assay [5] is given as “Not Active”. For the same compound, the Ki result in assay [1] and in assay [3] was “Not Active” each time.
`O=C(O)CCNC(=O)c1ccccc1` [BETAMIPRON]: the IC50 entry (on Vasopressin V1a receptor; in assay [1]; in assay [2]; in assay [3]; against Adenosine receptor A3 (cho-k1); in assay [4]) was “Not Active” throughout. Further, the IC50 result in assay [5] was “Not Active”. Moreover, the Ki result in assay [1] and in assay [3] was “Not Active” in each case.
For the compound `O=c1cnn([C@@H]2O[C@H](CO)[C@@H](O)[C@H]2O)c(=O)[nH]1` [6-AZAURIDINE], the IC50 result (against Vasopressin V1a receptor; in assay [1]; in assay [2]; in assay [3]; at Adenosine receptor A3 (cho-k1); in assay [4]) was “Not Active” each time. Moreover, in assay [5], the IC50 entry is on record as “Not Active”. The inhibition constant (Ki) result in assay [1] and in assay [3] was “Not Active” each time.
`Cc1c(OCC(F)(F)F)ccnc1C[S+]([O-])c1nc2ccccc2[nH]1` (configuration not stated) [LANSOPRAZOLE]: the IC50 entry (at Vasopressin V1a receptor; in assay [1]; in assay [2]; in assay [3]; on Adenosine receptor A3 (cho-k1); in assay [4]) was “Not Active” throughout. For the same compound, the half-inhibitory concentration (IC50) entry in assay [5] was “Not Active”. Further, the Ki result in assay [1] and in assay [3] was “Not Active” throughout.
With `C[C@@H]1C[C@H]2[C@@H]3CCC4=CC(=O)C=C[C@]4(C)[C@@]3(F)[C@@H](O)C[C@]2(C)[C@H]1C(=O)CO` [DESOXIMETASONE], the IC50 result (against Vasopressin V1a receptor; in assay [1]; in assay [2]; in assay [3]; against Adenosine receptor A3 (cho-k1); in assay [4]) was “Not Active” in each case. Further, the concentration for half-maximal inhibition (IC50) result in assay [5] was “Not Active”. In addition, the Ki entry in assay [1] and in assay [3] was “Not Active” each time.
Take `O=C(c1ccccc1C(F)(F)F)N1CCC(Cc2ccccc2)CC1`: the IC50 entry (on Vasopressin V1a receptor; in assay [1]; in assay [2]; in assay [3]; against Adenosine receptor A3 (cho-k1); in assay [4]) was “Not Active” in each case. For the same compound, the 50% inhibitory concentration (IC50) result in assay [5] is “Not Active”. The Ki entry in assay [1] and in assay [3] was “Not Active” each time.
Take `O=c1cc(N2CCOCC2)oc2c(-c3ccccc3)cccc12` [LY-294002]: the IC50 entry (against Vasopressin V1a receptor; in assay [1]; in assay [2]; in assay [3]; at Adenosine receptor A3 (cho-k1); in assay [4]) was “Not Active” throughout. In assay [5], the IC50 entry is given as “Not Active”. In addition, the Ki entry in assay [1] and in assay [3] was “Not Active” each time.
As to `COc1cc(N)c(Cl)cc1C(=O)NC1CCN(CCCOc2ccc(F)cc2)CC1OC` (configuration not stated) [CISAPRIDE], the IC50 result (against Vasopressin V1a receptor; in assay [1]; in assay [2]; in assay [3]; at Adenosine receptor A3 (cho-k1); in assay [4]) was “Not Active” in each case. Moreover, the concentration for half-maximal inhibition (IC50) result in assay [5] was “Not Active”. Besides, the Ki entry in assay [1] and in assay [3] was “Not Active” in each case.
On to `N=C(N)NC(=O)Cc1c(Cl)cccc1Cl` [GUANFACINE], for which the IC50 entry (at Vasopressin V1a receptor; in assay [1]; in assay [2]; in assay [3]; against Adenosine receptor A3 (cho-k1); in assay [4]) was “Not Active” throughout. The IC50 entry in assay [5] is “Not Active”. Besides, the Ki entry in assay [1] and in assay [3] was “Not Active” in each case.
As to `NC(=O)C[S+]([O-])C(c1ccccc1)c1ccccc1` (configuration not stated) [MODAFINIL], the IC50 entry (on Vasopressin V1a receptor; in assay [1]; in assay [2]; in assay [3]; against Adenosine receptor A3 (cho-k1); in assay [4]) was “Not Active” in each case. In assay [5], the IC50 result is given as “Not Active”. Further, the Ki result in assay [1] and in assay [3] was “Not Active” in each case.
Regarding `CC(C)(C)NC(=O)[C@H]1CC[C@H]2[C@@H]3CC[C@H]4NC(=O)C=C[C@]4(C)[C@H]3CC[C@]12C` [FINASTERIDE], the IC50 result (against Vasopressin V1a receptor; in assay [1]; in assay [2]; in assay [3]; on Adenosine receptor A3 (cho-k1); in assay [4]) was “Not Active” each time. In assay [5], the IC50 result is recorded as “Not Active”. The Ki entry in assay [1] and in assay [3] was “Not Active” each time.
Consider `CC(C)NNC(=O)c1ccncc1` [IPRONIAZID], for which the 50% inhibitory concentration (IC50) result (on Vasopressin V1a receptor; in assay [1]; in assay [2]; in assay [3]; on Adenosine receptor A3 (cho-k1); in assay [4]) was “Not Active” in each case. Besides, in assay [5], the IC50 entry was “Not Active”. For the same compound, the Ki entry in assay [1] and in assay [3] was “Not Active” each time.
Consider `CC(=O)[C@@]1(O)CC[C@H]2[C@@H]3CCC4=CC(=O)CC[C@]4(C)[C@H]3CC[C@@]21C` [HYDROXYPROGESTERONE], for which the IC50 result was “Not Active” on Vasopressin V1a receptor; “Not Active” in assay [1]; “Not Active” in assay [2]; “Not Active” in assay [3]; 4.73 µM on Adenosine receptor A3 (read-out: IC50); “Not Active” in assay [4]. In assay [5], the IC50 result is given as “Not Active”. Besides, the results for the Ki entry (in assay [1]; in assay [3]; at Adenosine receptor A3 (read-out: Ki)) were “Not Active”, “Not Active” and 2.67 µM, respectively.
Turning to `O=C(N/N=C/c1ccc([N+](=O)[O-])o1)c1cc([N+](=O)[O-])cc([N+](=O)[O-])c1O` [NIFURSOL], the IC50 entry (on Vasopressin V1a receptor; in assay [1]; in assay [2]; in assay [3]; at Adenosine receptor A3 (cho-k1); in assay [4]) was “Not Active” each time. In assay [5], the half-maximal inhibitory concentration (IC50) result is recorded as “Not Active”. In addition, the Ki result in assay [1] and in assay [3] was “Not Active” in each case.
With `CC(C)NCC(O)COc1cccc2[nH]ccc12` (configuration not stated) [PINDOLOL], the IC50 entry (against Vasopressin V1a receptor; in assay [1]; in assay [2]; in assay [3]; at Adenosine receptor A3 (cho-k1); in assay [4]) was “Not Active” each time. Moreover, the IC50 entry in assay [5] is recorded as “Not Active”. The inhibition constant (Ki) result in assay [1] and in assay [3] was “Not Active” each time.
As to `Oc1cccc(O)c1O` [PYROGALLOL], the IC50 entry (on Vasopressin V1a receptor; in assay [1]; in assay [2]; in assay [3]; at Adenosine receptor A3 (cho-k1); in assay [4]) was “Not Active” in each case. The IC50 entry in assay [5] is “Not Active”. For the same compound, the Ki result in assay [1] and in assay [3] was “Not Active” throughout.
